Seven molecules from US20170325452A1, “Active compound combinations” (BAYER CROPSCIENCE AKTIENGESELLSCHAFT, priority 2014, published 2017) can be followed below.

One experiment has as its system Alternaria solani. Put plainly: in vivo preventive test on Alternaria test (tomatoes). As to conditions: single active compound. From the text: (§1) A synergistic effect of fungicides is always present when the fungicidal activity of the active compound combinations exceeds the total of the activities of the active compounds when applied individually. The expected activity for a given combination of two active compounds can be calculated as follows (cf. Colby, S. R., “Calculating Synergistic and Antagonistic Responses of Herbicide Combinations”, Weeds 1967, 15, 20-22):
(§2) • X is the efficacy when active compound A is applied at an application rate of m ppm (or g/ha), • Y is the efficacy when active compound B is applied at an application rate of n ppm (or g/ha), • E is the efficacy when the active compounds A and B are applied at application rates of m and n ppm (or g/ha), respectively, and then
(§3) The degree of efficacy, expressed in % is denoted. 0% means an efficacy which corresponds to that of the control while an efficacy of 100% means that no disease is observed.
Example: In Vivo Preventive Test on Alternaria Test (Tomatoes)
(§4) • Solvent: 24.5 parts by weight of acetone • 24.5 parts by weight of dimethylacetamide • Emulsifier: 1 part by weight of alkylaryl polyglycol ether
(§5) To produce a suitable preparation of active compound, 1 part by weight of active compound is mixed with the stated amounts of solvent and emulsifier, and the concentrate is diluted with water to the desired concentration.
To test for preventive activity, young plants are sprayed with the preparation of active compound at the stated rate of application. After the spray coating has dried on, the plants are inoculated with an aqueous spore suspension of Alternaria solani. The plants are then placed in an incubation cabinet at approximately 20° C. and a relative atmospheric humidity of 100%.
The test is evaluated 3 days after the inoculation. 0% means an efficacy which corresponds to that of the untreated control while an efficacy of 100% means that no disease is observed.

For the next experiment, the system named is Botrytis cinerea. Put plainly: in vivo preventive test on Botrytis test (beans). As to conditions: single active compound, the 3rd table.
Description: as §1, §2, §3
Example: In Vivo Preventive Test on Botrytis Test (Beans)
as §4, §5
To test for preventive activity, young plants are sprayed with the preparation of active compound. After the spray coating has dried on, 2 small pieces of agar covered with growth of Botrytis cinerea are placed on each leaf. The inoculated plants are placed in a darkened chamber at 20° C. and a relative atmospheric humidity of 100%.
2 days after the inoculation, the size of the lesions on the leaves is evaluated. 0% means an efficacy which corresponds to that of the untreated control, while an efficacy of 100% means that no disease is observed.

The test system of another experiment is Phakopsora pachyrhizi. Kind of experiment: in vivo preventive test on Phakopsora test (soybeans). As to conditions: single active compound.
Description: as §1, §2, §3
Example: In Vivo Preventive Test on Phakopsora Test (Soybeans)
as §4, §5
To test for preventive activity, young plants are sprayed with the preparation of active compound at the stated rate of application. After the spray coating has dried on, the plants are inoculated with an aqueous spore suspension of the causal agent of soybean rust (Phakopsora pachyrhizi) and stay for 24 h without light in an incubation cabinet at approximately 24° C. and a relative atmospheric humidity of 95%.
The plants remain in the incubation cabinet at approximately 24° C. and a relative atmospheric humidity of approximately 80% and a day/night interval of 12 h.
The test is evaluated 7 days after the inoculation. 0% means an efficacy which corresponds to that of the untreated control, while an efficacy of 100% means that no disease is observed.

Another experiment relates to Venturia inaequalis. Put plainly: in vivo preventive test on Venturia test (apples). As to conditions: single active compound.
Description: as §1, §2, §3
Example: In Vivo Preventive Test on Venturia Test (Apples)
as §4, §5
To test for preventive activity, young plants are sprayed with the preparation of active compound at the stated rate of application. After the spray coating has dried on, the plants are inoculated with an aqueous conidia suspension of the causal agent of apple scab (Venturia inaequalis) and then remain for 1 day in an incubation cabinet at approximately 20° C. and a relative atmospheric humidity of 100%.
The plants are then placed in a greenhouse at approximately 21° C. and a relative atmospheric humidity of approximately 90%.
(§6) The test is evaluated 10 days after the inoculation. 0% means an efficacy which corresponds to that of the untreated control, while an efficacy of 100% means that no disease is observed.

The test system of the next experiment is Uromyces appendiculatus. Kind of experiment: in vivo preventive test on Uromyces test (beans). As to conditions: single active compound, the 7th table.
Description: as §1, §2, §3
Example: In Vivo Preventive Test on Uromyces Test (Beans)
as §4
To produce a suitable preparation of active compound, 1 part by weight of active compound is mixed with the stated amounts of solvent and emulsifier, and the concentrate is diluted with water to the desired concentration. To test for preventive activity, young plants are sprayed with the preparation of active compound at the stated rate of application. After the spray coating has dried on, the plants are inoculated with an aqueous spore suspension of the causal agent of bean rust (Uromyces appendiculatus) and then remain for 1 day in an incubation cabinet at approximately 20° C. and a relative atmospheric humidity of 100%. The plants are then placed in a greenhouse at approximately 21° C. and a relative atmospheric humidity of approximately 90%.
as §6

On to `CO/C=C(/C(=O)OC)c1ccccc1Oc1cc(Oc2ccccc2C#N)ncn1` [1.3, azoxystrobin], for which the “Efficacy in % found” value with Alternaria solani (0.25 ppm a.i., the 1st table) is 45%; with Alternaria solani (0.25 ppm a.i., the 2nd table), 35%; in the experiment with Alternaria solani (0.5 ppm a.i., the 1st table) it was 35%; in the experiment with Alternaria solani (0.5 ppm a.i., the 2nd table), 8%; in the experiment on Alternaria solani (1 ppm a.i., the 1st table) it was 65%; in the experiment on Alternaria solani (1 ppm a.i., the 2nd table), 15%. Also, the “Efficacy in % found” value with Botrytis cinerea (0.25 ppm a.i.) amounted to 30%; in the experiment on Botrytis cinerea (0.5 ppm a.i.), 15%; in the experiment on Phakopsora pachyrhizi (0.25 ppm a.i., the 4th table) it was 0%; in the experiment on Phakopsora pachyrhizi (0.25 ppm a.i., the 5th table), 16%; with Phakopsora pachyrhizi (0.5 ppm a.i., the 4th table), 18%; in the experiment on Phakopsora pachyrhizi (0.5 ppm a.i., the 5th table), 41%. Further, the “Efficacy in % found” value was found to be 25% with Venturia inaequalis (0.5 ppm a.i., the 8th table); 88% in the experiment with Venturia inaequalis (0.5 ppm a.i., the 9th table); 30% in the experiment with Venturia inaequalis (1 ppm a.i., the 8th table); 94% in the experiment on Venturia inaequalis (1 ppm a.i., the 9th table).

As to `CO/C=C(/C(=O)OC)c1ccccc1COc1cccc(C(F)(F)F)n1` [1.16, picoxystrobin], the “Efficacy in % found” value is recorded as 30% with Alternaria solani (0.25 ppm a.i., the 1st table); 8% in the experiment with Alternaria solani (0.25 ppm a.i., the 2nd table); 30% in the experiment with Alternaria solani (0.5 ppm a.i., the 1st table); 8% in the experiment with Alternaria solani (0.5 ppm a.i., the 2nd table); 50% in the experiment with Alternaria solani (1 ppm a.i., the 1st table); 35% in the experiment on Alternaria solani (1 ppm a.i., the 2nd table). Further, the “Efficacy in % found” value is given as 40% in the experiment with Botrytis cinerea (0.25 ppm a.i.); 40% with Botrytis cinerea (0.5 ppm a.i.); 0% in the experiment with Phakopsora pachyrhizi (0.25 ppm a.i., the 4th table); 0% in the experiment on Phakopsora pachyrhizi (0.25 ppm a.i., the 5th table); 24% in the experiment on Phakopsora pachyrhizi (0.5 ppm a.i., the 4th table); 0% in the experiment with Phakopsora pachyrhizi (0.5 ppm a.i., the 5th table). Also, the “Efficacy in % found” value in the experiment on Phakopsora pachyrhizi (1 ppm a.i., the 4th table) came out at 9%; in the experiment with Phakopsora pachyrhizi (1 ppm a.i., the 5th table), 62%; in the experiment with Venturia inaequalis (0.5 ppm a.i., the 9th table), 13%.

Consider `CON=C(C(=O)OC)c1ccccc1CON=C(C)c1cccc(C(F)(F)F)c1` [1.22, trifloxystrobin], for which the “Efficacy in % found” value with Alternaria solani (0.25 ppm a.i., the 1st table) is given as 8%; in the experiment on Alternaria solani (0.5 ppm a.i., the 1st table) it was 24%; with Alternaria solani (1 ppm a.i., the 1st table), 35%; in the experiment on Phakopsora pachyrhizi (0.25 ppm a.i., the 6th table), 0%; in the experiment with Phakopsora pachyrhizi (0.5 ppm a.i., the 6th table), 0%; in the experiment with Phakopsora pachyrhizi (1 ppm a.i., the 6th table), 0%. For the same molecule, the “Efficacy in % found” value was 0% in the experiment on Uromyces appendiculatus (0.25 ppm a.i.); 0% in the experiment with Uromyces appendiculatus (1 ppm a.i.); 0% in the experiment on Venturia inaequalis (0.25 ppm a.i., the 10th table); 5% with Venturia inaequalis (0.5 ppm a.i., the 10th table); 5% with Venturia inaequalis (1 ppm a.i., the 10th table).

As to `CCC1CC(C)(C)c2cccc(NC(=O)c3cccnc3C(F)F)c21` (stereo not drawn) [(I-3), 2-(difluoromethyl)-N-(3-ethyl-1,1-dimethyl-2,3-dihydro-1H-inden-4-yl)nicotinamide], the “Efficacy in % found” value is 28% with Phakopsora pachyrhizi (0.5 ppm a.i., the 6th table); 38% in the experiment with Phakopsora pachyrhizi (1 ppm a.i., the 6th table); 10% in the experiment with Venturia inaequalis (0.25 ppm a.i., the 8th table); 13% with Venturia inaequalis (1 ppm a.i., the 8th table); 15% with Venturia inaequalis (1 ppm a.i., the 10th table).

For the molecule `CC[C@@H]1CC(C)(C)c2cccc(NC(=O)c3cccnc3C(F)F)c21` [(I-4), 2-(difluoromethyl)-N-[(3R)-3-ethyl-1,1-dimethyl-2,3-dihydro-1H-inden-4-yl]nicotinamide], the “Efficacy in % found” value with Botrytis cinerea (0.5 ppm a.i.) stood at 15%; with Phakopsora pachyrhizi (0.5 ppm a.i., the 4th table), 87%; in the experiment with Phakopsora pachyrhizi (1 ppm a.i., the 4th table), 87%; in the experiment on Venturia inaequalis (0.25 ppm a.i., the 8th table), 10%; in the experiment on Venturia inaequalis (1 ppm a.i., the 10th table) it was 37%.

`CCCC1CC(C)(C)c2cccc(NC(=O)c3cccnc3C(F)F)c21` (stereo not drawn) [(I-5), 2-(difluoromethyl)-N-(1,1-dimethyl-3-propyl-2,3-dihydro-1H-inden-4-yl)nicotinamide]: the “Efficacy in % found” value is on record as 93% in the experiment with Uromyces appendiculatus (0.25 ppm a.i.) and 10% in the experiment on Venturia inaequalis (1 ppm a.i., the 10th table).

In the case of `CCC[C@@H]1CC(C)(C)c2cccc(NC(=O)c3cccnc3C(F)F)c21` [(I-6), 2-(difluoromethyl)-N-[(3R)-1,1-dimethyl-3-propyl-2,3-dihydro-1H-inden-4-yl]nicotinamide], the “Efficacy in % found” value with Alternaria solani (0.5 ppm a.i., the 1st table) came out at 30%; in the experiment on Phakopsora pachyrhizi (0.25 ppm a.i., the 5th table), 95%; in the experiment with Phakopsora pachyrhizi (1 ppm a.i., the 5th table), 93%.
